The structures appear in SMILES notation.

PIK3CG (human), sequence (P48736 whole entry, looked up): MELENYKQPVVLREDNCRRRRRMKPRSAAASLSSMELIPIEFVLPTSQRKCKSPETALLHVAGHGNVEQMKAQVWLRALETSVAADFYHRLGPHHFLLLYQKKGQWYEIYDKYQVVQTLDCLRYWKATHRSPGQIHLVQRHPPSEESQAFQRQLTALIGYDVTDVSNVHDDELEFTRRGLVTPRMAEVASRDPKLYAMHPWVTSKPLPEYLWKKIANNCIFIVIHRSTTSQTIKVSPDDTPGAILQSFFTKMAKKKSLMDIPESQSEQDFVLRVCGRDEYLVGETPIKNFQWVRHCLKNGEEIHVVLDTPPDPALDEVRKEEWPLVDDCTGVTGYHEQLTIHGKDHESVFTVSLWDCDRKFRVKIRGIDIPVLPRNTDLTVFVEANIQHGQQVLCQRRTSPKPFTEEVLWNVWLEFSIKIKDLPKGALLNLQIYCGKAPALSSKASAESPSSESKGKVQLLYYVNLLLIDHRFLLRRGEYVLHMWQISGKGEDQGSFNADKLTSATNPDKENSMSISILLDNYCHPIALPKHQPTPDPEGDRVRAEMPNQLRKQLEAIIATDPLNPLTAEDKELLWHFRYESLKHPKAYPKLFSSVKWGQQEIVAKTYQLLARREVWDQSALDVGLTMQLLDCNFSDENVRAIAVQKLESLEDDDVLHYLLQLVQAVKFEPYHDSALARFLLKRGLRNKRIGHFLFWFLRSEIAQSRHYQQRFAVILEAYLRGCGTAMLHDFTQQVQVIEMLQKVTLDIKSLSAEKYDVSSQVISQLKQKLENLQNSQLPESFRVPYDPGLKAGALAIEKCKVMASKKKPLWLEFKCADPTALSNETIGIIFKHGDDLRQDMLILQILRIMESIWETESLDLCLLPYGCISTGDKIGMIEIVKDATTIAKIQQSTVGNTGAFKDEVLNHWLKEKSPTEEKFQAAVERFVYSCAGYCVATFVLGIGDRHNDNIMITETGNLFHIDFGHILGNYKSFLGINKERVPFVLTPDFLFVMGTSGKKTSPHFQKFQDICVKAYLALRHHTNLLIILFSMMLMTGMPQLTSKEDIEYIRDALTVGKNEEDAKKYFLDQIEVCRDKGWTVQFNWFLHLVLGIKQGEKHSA

This assay concerns the target PIK3CG (human) (UniProt P48736). As to the kind of experiment: Inhibition of PIK3CG Kinase Activity.
A word on the IC50: it is the concentration at which inhibition is half-maximal. Low values mean inhibition by little substance, high ones a need for much substance. With `CC(=O)Nc1nc2c(s1)-c1c(c(C3CC3)nn1-c1ccc(C(=O)N[C@@H]3CCN(CC4CCCC4)C3)cc1C)CC2`, the IC50 was below 600 nM.

`CC(=O)Nc1nc2c(s1)-c1c(c(C3CC3)nn1-c1ccc(C(=O)N(C)[C@@H]3CCN(C4CCCC4)C3)cc1F)CC2`: the IC50 was below 600 nM. `CC(=O)Nc1nc2c(s1)-c1c(c(C3CC3)nn1-c1ccc(C(=O)N3CCN(C4CCCC4)CC3)c(Cl)c1)CC2` gave an IC50 below 600 nM. With `CC(=O)Nc1nc2c(s1)-c1c(c(C3CC3)nn1-c1ccc(NC(=O)C3CCN(C4CCCC4)CC3)cc1Cl)CC2`, the IC50 was below 600 nM. For the compound `CCN(CC)CCN1CCN(C(=O)c2ccc(-n3nc(C4CC4)c4c3-c3sc(NC(C)=O)nc3CC4)cc2Cl)CC1`, the IC50 is below 600 nM. The compound `CC(=O)Nc1nc2c(s1)-c1c(c(C3CC3)nn1-c1ccc(C(=O)N3CC[C@@H](CN4CCCC4)C3)c(Cl)c1)CC2` displayed an IC50 below 600 nM.

With `CC(=O)Nc1nc2c(s1)-c1c(c(C3CC3)nn1-c1ccc(C(=O)NC3CCN(CC4CCCC4)CC3)c(F)c1)CC2`, the IC50 was below 600 nM. Compound `CNC(=O)c1ccc(-n2nc(C3CCCC3)c3c2-c2sc(NC(C)=O)nc2CC3)c(Cl)c1` came in with an IC50 below 600 nM. The figure for `CC(=O)Nc1nc2c(s1)-c1c(c(C3CC3)nn1C1CCN(C(=O)C3CCN(CC4CCCCC4)CC3)CC1)CC2` is below 600 nM.

Compound `CC(=O)Nc1nc2c(s1)-c1c(c(C3CC3)nn1-c1ccc(C(=O)NC3CCN(CC4CCCC4)CC3)cc1Cl)CC2` showed an IC50 below 600 nM. Under `CC(=O)Nc1nc2c(s1)-c1c(c(C3CC3)nn1-c1ccc(C(=O)N[C@H]3CC[C@@H](N4CCCC4)CC3)cc1Cl)CC2` stands below 600 nM; under `CC(=O)Nc1nc2c(s1)-c1c(c(C3CC3)nn1-c1ccc(C(=O)N[C@@H]3CCN(C4CCCC4)C3)cc1F)CC2`, below 600 nM; under `CC(=O)Nc1nc2c(s1)-c1c(c(C3CC3)nn1-c1ccc(NCC3CCCCC3)cc1Cl)CC2`, below 600 nM. The compound `CC(=O)Nc1nc2c(s1)-c1c(c(C3CC3)nn1C1CCN(C(=O)C3CCN(CC4CCCC4)CC3)CC1)CC2` gave an IC50 below 600 nM.

In the case of `CCCN1CC[C@@H](NC(=O)c2ccc(-n3nc(C4CC4)c4c3-c3sc(NC(C)=O)nc3CC4)c(C)c2)C1`, the IC50 is below 600 nM. `CC(=O)Nc1nc2c(s1)-c1c(c(C3CC3)nn1-c1ccc(C(=O)N[C@H]3CC[C@@H](N(C)CC4CCCC4)CC3)c(Cl)c1)CC2` came in with an IC50 below 600 nM.

In turn, `CC(=O)Nc1nc2c(s1)-c1c(c(C3CC3)nn1-c1ccc(C(=O)N[C@H]3CC[C@@H](N(C)C)CC3)cc1Cl)CC2` showed an IC50 below 600 nM. `CC(=O)Nc1nc2c(s1)-c1c(c(C3CC3)nn1-c1ccc(C(=O)N[C@H]3CC[C@@H](N(C)CC4CC4)CC3)c(Cl)c1)CC2` came in with an IC50 below 600 nM. `CC(=O)Nc1nc2c(s1)-c1c(c(C3CC3)nn1-c1ccc(C(=O)N3CCC(N4CCCC4)CC3)cc1Cl)CC2` registered an IC50 below 600 nM.

The compound `CC(=O)Nc1nc2c(s1)-c1c(c(C3CCCC3)nn1-c1ccc(C(=O)NC3CCN(CC4CCCC4)CC3)cc1Cl)CC2` showed an IC50 below 600 nM.

The compound `CC(=O)Nc1nc2c(s1)-c1c(c(C3CC3)nn1-c1ccc(C(=O)NC3CCN(C4CCCCC4)CC3)cc1F)CC2` had an IC50 below 600 nM. Under `CC(=O)Nc1nc2c(s1)-c1c(c(C3CC3)nn1-c1ccc(C(=O)N(C)[C@H]3CCN(C4CCCCC4)C3)cc1F)CC2` stands below 600 nM; under `CC(=O)Nc1nc2c(s1)-c1c(c(C3CC3)nn1-c1ccc(C(=O)N[C@H]3CC[C@@H](N4CCOCC4)CC3)c(F)c1)CC2`, below 600 nM. The figure for `CC(=O)Nc1nc2c(s1)-c1c(c(C3CC3)nn1-c1ccc(C(=O)N[C@H]3CC[C@@H](N4CCOCC4)CC3)cc1F)CC2` is below 600 nM; for `CCN(C(=O)c1ccc(-n2nc(C3CC3)c3c2-c2sc(NC(C)=O)nc2CC3)c(F)c1)[C@H]1CC[C@@H](N2CCCC2)CC1` it is below 600 nM; for `CC(=O)Nc1nc2c(s1)-c1c(c(C3CC3)nn1-c1ccc(C(=O)N[C@@H]3CCN(C4CCCC4)C3)c(C)c1)CC2` it is below 600 nM. The figure for `CC(=O)Nc1nc2c(s1)-c1c(c(C3CC3)nn1-c1ccc(C(=O)N[C@@H]3CCN(C4CCCC4)C3)cc1Cl)CC2` is below 600 nM; for `CC(=O)Nc1nc2c(s1)-c1c(c(C3CC3)nn1-c1ccc(C(=O)N(C)[C@H]3CC[C@@H](N(C)CC4CC4)CC3)cc1C)CC2` it is below 600 nM. On to `CC(=O)Nc1nc2c(s1)-c1c(c(C3CC3)nn1-c1ccc(C(=O)NC3CCN(CC4CCCC4)CC3)cc1C)CC2`, for which the IC50 is below 600 nM. In the case of `CC(=O)Nc1nc2c(s1)-c1c(c(C3CC3)nn1-c1ccc(C(=O)NC3CCN(C4CCCC4)CC3)cc1F)CC2`, the IC50 was below 600 nM.

Turning to `CC(=O)Nc1nc2c(s1)-c1c(c(C3CC3)nn1-c1ccc(N)c(Cl)c1)CC2`, the IC50 was below 600 nM. Under `CC(=O)Nc1nc2c(s1)-c1c(c(C3CCCC3)nn1-c1ccc(C(=O)NC3CCN(C(C)C)CC3)cc1Cl)CC2` stands below 600 nM; under `CCCN1CCC(NC(=O)c2ccc(-n3nc(C4CC4)c4c3-c3sc(NC(C)=O)nc3CC4)cc2C)CC1`, below 600 nM.

The compound `CC(=O)Nc1nc2c(s1)-c1c(c(C3CC3)nn1-c1ccc(C(=O)N(C)[C@@H]3CCN(C4CCCC4)C3)cc1C)CC2` returned an IC50 below 600 nM. Consider `CC(=O)Nc1nc2c(s1)-c1c(c(C3CC3)nn1C1CCC(C(=O)NC3CCN(CC4CCCC4)CC3)CC1)CC2` (stereo not drawn), for which the IC50 is below 600 nM. The figure for `CC(=O)Nc1nc2c(s1)-c1c(c(C3CC3)nn1-c1ccc(C(=O)NC[C@H]3CCCN3C3CCCC3)c(Cl)c1)CC2` is below 600 nM. The figure for `CC(=O)Nc1nc2c(s1)-c1c(c(C3CC3)nn1-c1ccc(C(=O)NC3CCN(C4CCOCC4)CC3)cc1Cl)CC2` is below 600 nM; for `CC(=O)Nc1nc2c(s1)-c1c(c(C3CC3)nn1-c1ccc(C(=O)NC3CCN(C)CC3)cc1Cl)CC2` it is below 600 nM.

The compound `CC(=O)Nc1nc2c(s1)-c1c(c(C3CC3)nn1-c1ccc(C(=O)N[C@H]3CC[C@@H](N4CCCCC4)CC3)c(C)c1)CC2` gave an IC50 below 600 nM. Under `CC(=O)Nc1nc2c(s1)-c1c(c(C3CC3)nn1-c1ccc(C(=O)N[C@H]3CC[C@@H](N4CCCCC4)CC3)c(Cl)c1)CC2` stands below 600 nM; under `CC(=O)Nc1nc2c(s1)-c1c(c(C3CC3)nn1-c1ccc(C(=O)N(C)C3CCC(N4CCCCC4)CC3)c(F)c1)CC2` (stereo not drawn), below 600 nM. The figure for `CC(=O)Nc1nc2c(s1)-c1c(c(C3CC3)nn1-c1ccc(C(=O)N(C)C3CCN(C)CC3)cc1Cl)CC2` is below 600 nM; for `CC(=O)Nc1nc2c(s1)-c1c(c(C3CC3)nn1-c1ccc(C(=O)N(C)C[C@@H]3CCN(C4CCCC4)C3)c(Cl)c1)CC2` it is below 600 nM.

`CC(=O)Nc1nc2c(s1)-c1c(c(C3CC3)nn1-c1ccc(NCC3CCNCC3)cc1Cl)CC2` returned an IC50 below 600 nM. Under `CCN(C(=O)c1ccc(-n2nc(C3CC3)c3c2-c2sc(NC(C)=O)nc2CC3)cc1Cl)[C@H]1CC[C@@H](N2CCCC2)CC1` stands below 600 nM; under `CC(=O)Nc1nc2c(s1)-c1c(c(C3CC3)nn1-c1ccc(C(=O)N(C)[C@H]3CC[C@@H](N4CCCC4)CC3)c(C)c1)CC2`, below 600 nM; under `CC(=O)Nc1nc2c(s1)-c1c(c(C3CC3)nn1-c1ccc(C(=O)N[C@H]3CC[C@@H](N(C)CC4CCCC4)CC3)cc1F)CC2`, below 600 nM.

In turn, `CC(=O)Nc1nc2c(s1)-c1c(c(C3CC3)nn1C1CCC(C(=O)N(C)[C@H]3CC[C@@H](N4CCCC4)CC3)CC1)CC2` (stereo partly drawn) came in with an IC50 below 600 nM. `CCCN1CCC(NC(=O)C2CCC(n3nc(C4CC4)c4c3-c3sc(NC(C)=O)nc3CC4)CC2)CC1` (stereo not drawn) registered an IC50 below 600 nM.

Turning to `CC(=O)Nc1nc2c(s1)-c1c(c(C3CC3)nn1-c1ccc(C(=O)NCC3CCN(CC4CCCC4)CC3)c(Cl)c1)CC2`, the IC50 is below 600 nM. `CC(=O)Nc1nc2c(s1)-c1c(c(C3(C)CC3)nn1-c1ccc(C(=O)NC3CCN(C4CCCC4)CC3)cc1Cl)CC2` showed an IC50 below 600 nM. Consider `CCCN1CCC(C(=O)Nc2ccc(-n3nc(C4CC4)c4c3-c3sc(NC(C)=O)nc3CC4)c(Cl)c2)CC1`, for which the IC50 was below 600 nM.

For `CC(=O)Nc1nc2c(s1)-c1c(c(C3CC3)nn1-c1ccc(C(=O)N3CC[C@H](CN4CCCC4)C3)cc1Cl)CC2`, the IC50 is below 600 nM.

`CC(=O)Nc1nc2c(s1)-c1c(c(C3CC3)nn1-c1ccc(C(=O)NCc3ccncc3)cc1Cl)CC2` displayed an IC50 below 600 nM. The figure for `CC(=O)Nc1nc2c(s1)-c1c(c(C3CC3)nn1-c1ccc(C(=O)NC3CCN(C4CCCCC4)CC3)cc1C)CC2` is below 600 nM; for `CC(=O)Nc1nc2c(s1)-c1c(c(C3CC3)nn1-c1ccc(C(=O)NC3CCN(CC4CCCC4)CC3)cc1F)CC2` it is below 600 nM; for `CC(=O)Nc1nc2c(s1)-c1c(c(C3CC3)nn1-c1ccc(C(=O)NC3CCN(C4CCCC4)CC3)cc1C)CC2` it is below 600 nM.

The compound `CC(=O)Nc1nc2c(s1)-c1c(c(C3CC3)nn1-c1ccc(C(=O)N(C)C3CCN(C4CCCC4)CC3)c(Cl)c1)CC2` had an IC50 below 600 nM. The figure for `COc1cc(-n2nc(C3CC3)c3c2-c2sc(NC(C)=O)nc2CC3)ccc1C(=O)N1CCC(N2CCCC2)CC1` is below 600 nM. Compound `CC(=O)Nc1nc2c(s1)-c1c(c(C3CC3)nn1-c1ccc(C(=O)N3CC[C@H](CN4CCCC4)C3)c(Cl)c1)CC2` yielded an IC50 below 600 nM.

Compound `CC(=O)Nc1nc2c(s1)-c1c(c(C3CC3)nn1-c1ccc(C(=O)N(C)[C@H]3CCN(C4CCCCC4)C3)cc1Cl)CC2` showed an IC50 below 600 nM.

In the case of `CC(=O)Nc1nc2c(s1)-c1c(c(C3CC3)nn1-c1ccc(C(=O)NC[C@@H]3CCCN3)c(Cl)c1)CC2`, the IC50 is below 600 nM. Compound `CC(=O)Nc1nc2c(s1)-c1c(c(C3CC3)nn1-c1ccc(C(=O)NC3CCN(C4CCOCC4)CC3)cc1C)CC2` displayed an IC50 below 600 nM.

`CC(=O)Nc1nc2c(s1)-c1c(c(C3(C)CC3)nn1-c1ccc(C(=O)NC3CCN(C)CC3)cc1Cl)CC2` showed an IC50 below 600 nM.

With `CC(=O)Nc1nc2c(s1)-c1c(c(C3(C)CC3)nn1-c1ccc(C(=O)NC3CCN(C(C)C)CC3)cc1Cl)CC2`, the IC50 was below 600 nM.

`CC(=O)Nc1nc2c(s1)-c1c(c(C3CC3)nn1-c1ccc(C(=O)N3CCC(N(C)C4CCCC4)CC3)cc1Cl)CC2` registered an IC50 below 600 nM. Compound `CNc1ccc(-n2nc(C3CC3)c3c2-c2sc(NC(C)=O)nc2CC3)c(Cl)c1` returned an IC50 below 600 nM. Under `CC(=O)Nc1nc2c(s1)-c1c(c(C3CC3)nn1-c1ccc(C(=O)N(C)[C@@H]3CCN(CC4CCCC4)C3)c(F)c1)CC2` stands below 600 nM.

Values taken from the Kinase Knowledgebase extract (Sharma et al. 2016).
